Measured values taken from patent US10758545B2, “Methods to treat neurological diseases” (UNIVERSITY OF SOUTHERN CALIFORNIA, priority 2015, dated 2020).

System: C9ORF72 patient iMNs
Assay: induced motor neuron (iMN) survival assay, glutamate treatment
Assay type: cell-based, human
Conditions: excess glutamate (10 μM, 12 hrs); longitudinal tracking, log-rank
Description: For the glutamate treatment conditions, 10 μM glutamate was added to the culture medium on day 17 and removed after 12 hrs. Cells were then maintained in N3 medium with neurotrophic factors without RepSox. For the glutamate treatment conditions with glutamate receptor antagonists, cultures were co-treated with 10 μM MK801 and CNQX, and 2 μM Nimodipine during the 12 hr glutamate treatment. The antagonists were maintained for the remainder of the experiment. For the neurotrophic factor withdrawal condition, BDNF, GDNF, and CNTF were removed from the culture medium starting at day 17. Longitudinal tracking was performed by imaging neuronal cultures in a Nikon Biostation CT or Molecular Devices ImageExpress once every 24 hrs starting at day 17. Tracking of neuronal survival was performed using SVcell 2.0 (DRVision Technologies).

Cc1cccc(/C=N/Nc2cc(N3CCOCC3)nc(OCCc3ccccn3)n2)c1 [apilimod]
survival of C9ORF72 patient iMNs: increased the survival
